{
  "source": "patent US8592457B2",
  "about": "“Isonicotinamide orexin receptor antagonists” (Merck Sharp & Dohme Corp., priority 2008, dated 2013)",
  "data": [
    {"molecular_target": "OX2R (Homo sapiens (Human), UniProt O43614)", "sequence (O43614 whole entry)": "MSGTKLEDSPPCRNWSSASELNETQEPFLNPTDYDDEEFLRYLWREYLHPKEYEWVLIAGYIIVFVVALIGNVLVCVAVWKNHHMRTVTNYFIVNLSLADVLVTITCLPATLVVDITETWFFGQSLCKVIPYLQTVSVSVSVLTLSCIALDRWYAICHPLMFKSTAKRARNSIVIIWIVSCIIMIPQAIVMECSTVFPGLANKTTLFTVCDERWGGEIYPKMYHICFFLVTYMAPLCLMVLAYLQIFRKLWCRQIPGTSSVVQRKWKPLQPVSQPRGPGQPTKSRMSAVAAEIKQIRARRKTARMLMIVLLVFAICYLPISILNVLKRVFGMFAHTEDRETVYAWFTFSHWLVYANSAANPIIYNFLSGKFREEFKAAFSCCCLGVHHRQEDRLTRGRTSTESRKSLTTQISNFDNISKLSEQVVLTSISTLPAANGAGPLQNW", "experiment": "radioligand binding assay, OX2 receptor", "settings": "membranes prepared from CHO cells expressing the OX2 receptor", "protocol": "The utility of the compounds in accordance with the present invention as orexin receptor OX1R and/or OX2R antagonists may be readily determined without undue experimentation by methodology well known in the art, including the “FLIPR Ca^2+ Flux Assay” (Okumura et al., Biochem. Biophys. Res. Comm. 280:976-981, 2001). In a typical experiment the OX1 and OX2 receptor antagonistic activity of the compounds of the present invention was determined in accordance with the following experimental method. For intracellular calcium measurements, Chinese hamster ovary (CHO) cells expressing the rat orexin-1 receptor or the human orexin-2 receptor, are grown in Iscove's modified DMEM containing 2 mM L-glutamine, […], 1% hypoxanthine-thymidine supplement, 100 U/ml penicillin, 100 ug/ml streptomycin and 10% heat-inactivated fetal calf serum (FCS). The cells are seeded at 20,000 cells/well into Becton-Dickinson black 384-well clear bottom sterile plates coated with poly-D-lysine. All reagents were from GIBCO-Invitrogen Corp. The seeded plates are incubated overnight at 37° C. and 5% CO2. Ala-6,12 human orexin-A as the agonist is prepared as a 1 mM stock solution in 1% bovine serum albumin (BSA) and diluted in assay buffer (HBSS containing 20 mM HEPES, 0.1% BSA and 2.5 mM probenecid, pH7.4) for use in the assay at a final concentration of […]. Test compounds are prepared as 10 mM stock solution in DMSO, then diluted in 384-well plates, first in DMSO, then assay buffer. On the day of the assay, cells are washed 3 times with 100 ul assay buffer and then incubated for 60 min (37° C., 5% CO2) in 60 ul assay buffer containing 1 uM Fluo-4AM ester, 0.02% pluronic acid, and 1% BSA. The dye loading solution is then aspirated and cells are washed 3 times with 100 ul assay buffer. 30 ul of that same buffer is left in each well. Within the Fluorescent Imaging Plate Reader (FLIPR, Molecular Devices), test compounds are added to the plate in a volume of 25 ul, incubated for 5 min and finally 25 ul of agonist is added. Fluorescence is measured for each well at 1 second intervals for 5 minutes and the height of each fluorescence peak is compared to the height of the fluorescence peak induced by 70 pM Ala-6,12 orexin-A with buffer in place of antagonist. […] Alternatively, compound potency can be assessed by a radioligand binding assay (described in Bergman et. al. Bioorg. Med. Chem. Lett. 2008, 18, 1425-1430) in which the inhibition constant (Ki) is determined in membranes prepared from CHO cells expressing either the OX1 or OX2 receptor. The intrinsic orexin receptor antagonist activity of a compound which may be used in the present invention may be determined by these assays.", "units": {"Ki": "nM"}, "values": [
      {"molecule": "COc1ncc(CNC(=O)c2cc(-c3cncc(C)c3)ncc2-c2cccc(F)c2)nc1OC", "note": "[1-13]", "Ki": 4.5},
      {"molecule": "COc1ccc(CNC(=O)c2cc(-c3cncc(C)c3)ncc2-c2cccc(F)c2)nc1OC", "note": "[1-16]", "Ki": 0.91},
      {"molecule": "COc1ccc(CNC(=O)c2cc(-c3cncc(C)c3)ncc2-c2nccs2)nc1OC", "note": "[7-5, N-[(5,6-Dimethoxypyridin-2-yl)methyl]-5′-methyl-5-(1,3-thiazol-2-yl)-2,3′-bipyridine-4-carboxamide]", "Ki": 0.95},
      {"molecule": "COc1nc(CNC(=O)c2cc(-c3cncc(C)c3)ncc2-c2nccs2)ccc1C1CC1", "note": "[7-7, N-[(5-cyclopropyl-6-methoxypyridin-2-yl)methyl]-5′-methyl-5-(1,3-thiazol-2-yl)-2,3′-bipyridine-4-carboxamide]", "Ki": 0.97}
    ]}
  ]
}
